Test results: patent US12474342B2, “Methods for treating cancer and the use of biomarkers as a predictor of clinical sensitivity to therapies” (CELGENE CORPORATION, priority 2016, dated 2025)
Like-named read-outs stand apart in the source and are kept apart here.

Key:
[1] = target: T1, GSPT1 (Homo sapiens, UniProt P15170+Q96SW2); test: GSPT1 protein reduction, western analysis, KG-1; type: cell-based; set-up: reduction in GSPT1 protein level was evaluated in human normal PBMCs; endogenous in cells; host or cells: primary PBMCs from normal donors (ID 4328, 4379) and AML patients (ID 11SH, 09P6)
T1 sequence (P15170 1-637 isoform P15170-3): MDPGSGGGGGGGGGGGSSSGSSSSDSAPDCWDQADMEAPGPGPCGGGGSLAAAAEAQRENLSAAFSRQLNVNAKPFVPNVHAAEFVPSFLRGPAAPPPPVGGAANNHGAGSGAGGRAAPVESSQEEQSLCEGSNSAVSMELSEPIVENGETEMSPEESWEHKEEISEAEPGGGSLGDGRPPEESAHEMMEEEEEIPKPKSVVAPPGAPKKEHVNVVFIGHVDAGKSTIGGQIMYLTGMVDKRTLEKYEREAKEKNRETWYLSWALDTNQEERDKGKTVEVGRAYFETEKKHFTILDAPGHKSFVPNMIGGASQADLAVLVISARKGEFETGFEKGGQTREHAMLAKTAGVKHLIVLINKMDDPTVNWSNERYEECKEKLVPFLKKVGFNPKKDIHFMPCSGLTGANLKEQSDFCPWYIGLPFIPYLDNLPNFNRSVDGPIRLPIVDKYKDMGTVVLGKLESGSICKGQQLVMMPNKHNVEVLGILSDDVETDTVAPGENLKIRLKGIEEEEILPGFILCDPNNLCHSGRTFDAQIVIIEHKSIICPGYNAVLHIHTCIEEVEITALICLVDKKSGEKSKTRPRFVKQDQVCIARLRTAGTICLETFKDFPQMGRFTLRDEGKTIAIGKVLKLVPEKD
T1 sequence (Q96SW2 whole entry): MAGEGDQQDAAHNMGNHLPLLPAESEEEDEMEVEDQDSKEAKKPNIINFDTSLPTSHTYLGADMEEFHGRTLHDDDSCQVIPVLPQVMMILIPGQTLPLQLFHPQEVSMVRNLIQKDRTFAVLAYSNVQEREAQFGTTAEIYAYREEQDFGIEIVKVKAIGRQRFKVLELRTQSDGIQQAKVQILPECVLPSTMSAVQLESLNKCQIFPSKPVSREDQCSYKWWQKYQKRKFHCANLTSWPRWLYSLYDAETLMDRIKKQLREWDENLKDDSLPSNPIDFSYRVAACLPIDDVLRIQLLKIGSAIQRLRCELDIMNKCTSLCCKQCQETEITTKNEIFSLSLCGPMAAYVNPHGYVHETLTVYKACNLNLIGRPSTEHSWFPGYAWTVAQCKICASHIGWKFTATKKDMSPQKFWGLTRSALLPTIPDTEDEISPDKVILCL
T1 sequence (Q16531 whole entry partner): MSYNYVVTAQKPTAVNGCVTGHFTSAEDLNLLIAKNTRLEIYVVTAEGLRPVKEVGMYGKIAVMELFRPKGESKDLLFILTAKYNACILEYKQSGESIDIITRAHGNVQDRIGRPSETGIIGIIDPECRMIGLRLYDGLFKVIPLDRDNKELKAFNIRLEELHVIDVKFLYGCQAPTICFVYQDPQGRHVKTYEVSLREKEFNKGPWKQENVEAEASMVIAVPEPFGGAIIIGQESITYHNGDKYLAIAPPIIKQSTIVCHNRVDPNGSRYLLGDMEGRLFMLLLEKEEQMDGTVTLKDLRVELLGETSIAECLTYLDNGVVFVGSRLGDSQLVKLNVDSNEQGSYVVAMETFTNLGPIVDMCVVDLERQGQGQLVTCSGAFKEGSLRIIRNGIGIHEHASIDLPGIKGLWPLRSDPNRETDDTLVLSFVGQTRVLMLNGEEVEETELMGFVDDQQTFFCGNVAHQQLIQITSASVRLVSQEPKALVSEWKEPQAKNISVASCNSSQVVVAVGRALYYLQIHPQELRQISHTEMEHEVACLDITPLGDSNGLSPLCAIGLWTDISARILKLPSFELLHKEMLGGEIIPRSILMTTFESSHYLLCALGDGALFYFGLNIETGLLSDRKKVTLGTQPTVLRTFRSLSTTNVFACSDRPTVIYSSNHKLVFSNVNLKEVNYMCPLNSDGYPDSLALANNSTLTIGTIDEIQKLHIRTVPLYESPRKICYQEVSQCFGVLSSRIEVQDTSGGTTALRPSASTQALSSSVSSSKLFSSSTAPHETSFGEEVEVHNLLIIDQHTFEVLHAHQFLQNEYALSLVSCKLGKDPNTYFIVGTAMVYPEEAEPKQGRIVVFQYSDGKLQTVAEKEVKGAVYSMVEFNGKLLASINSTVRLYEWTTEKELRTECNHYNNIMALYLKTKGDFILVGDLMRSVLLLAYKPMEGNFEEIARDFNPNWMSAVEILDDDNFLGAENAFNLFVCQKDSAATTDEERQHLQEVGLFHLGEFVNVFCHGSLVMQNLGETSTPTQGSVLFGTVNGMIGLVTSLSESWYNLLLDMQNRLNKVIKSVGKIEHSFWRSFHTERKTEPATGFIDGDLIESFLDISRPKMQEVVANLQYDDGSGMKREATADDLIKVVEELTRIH
Protocol: Cells were treated with DMSO alone, 200 nM Compound D, or 200 nM Compound E. After 8 or 12 hours, the expression levels of various cellular components along UPR or apoptosis pathways were measured. […] Reduction of BIP indicates UPR.
To further investigate the timeline of cellular events upon Compound D treatment, KG1 cells were treated with DMSO alone or 200 nM Compound D. At 2, 4, 6, 8, 10, or 12 hours, the expression levels of various cellular components along ATF4 or apoptosis pathways were measured.
In two sensitive AML cell lines, KG-1 and HL-60, both a concentration-dependent decrease in GSPT1 protein and an increase in RNA expression of ATF3, CHOP, and SRSF3 and SRSF6 NMD transcripts at the 8-hour time point were compared to caspase 3/7 activation (apoptosis) at the 24-hour (FIG. 30A [KG-1]; FIG. 30C [HL-60]) and 48-hour (FIG. 30B [KG-1]; FIG. 30D [HL-60]) time points.
(§1) The reduction in the level of GSPT1 protein was concentration-dependent over the range of 3 to 1000 nM in eight of the nine AML cell lines and over the range of 300 to 1000 nM in one relatively insensitive AML cell line. The time course of the reduction in GSPT1 by Compound D also was studied for up to 48 hours. The progressive degradation of GSPT1 over the course of 1 to 20 hours was evident in the presence of all concentrations of Compound D studied from 3 to 300 nM in HNT-34, HL-60, and ML-2 cells, with little GSPT1 remaining by 20 hours at 100 or 300 nM Compound D in HNT-34 or HL-60 cells (FIG. 34 and FIG. 35C). Time-dependent reduction in GSPT1 was also observed in KG-1 and OCI-AML2 cells at 3 to 1000 nM Compound D, with little GSPT1 remaining in KG-1 cells at 100 to 300 nM at 24 hours or in OCI-AML2 cells at 300 and 1000 nM at 24 hours (FIG. 35D). Loss of GSPT1 occurred more slowly in Kasumi-1, AML-193, and F36-P cells.
(§2) Compound D-mediated GSPT1 reduction at 8 hours was compared to induction of caspase 3/7 activation (apoptosis) at 12, 24, and 48 hour time points in these nine AML cell lines. […] A positive association (r^2=0.50; R=0.71; p value=4.86E-002) was observed between the level of GSPT1 reduction and apoptosis induction in the AML cell panel (FIG. 36), with >90% GSPT1 reduction correlating with induction of apoptosis.

[2] = target: T1, GSPT1; test: GSPT1 protein reduction, western analysis, HL-60; type: cell-based; set-up: reduction in GSPT1 protein level was evaluated in human normal PBMCs; endogenous in cells; host or cells: primary PBMCs from normal donors (ID 4328, 4379) and AML patients (ID 11SH, 09P6)
Protocol: as §1, with “FIG. 30C [HL-60])” for “The reduction in the level of GSPT1 protein was concentration-dependent over the range of 3 to 1000 nM in eight of the nine AML cell lines”, “48-hour (FIG. 30B [KG-1]; FIG. 30D [HL-60]) time points. […]” for “over the range of 300 to 1000 nM in one relatively insensitive AML cell line.”, “F36-P” left out, “cells. […] A positive association (r^2=0.50; […]” for “cells.”

[3] = target: T1, GSPT1; test: GSPT1 protein reduction, western analysis, OCI-AML2; type: cell-based; set-up: reduction in GSPT1 protein level was evaluated in human normal PBMCs; endogenous in cells; host or cells: primary PBMCs from normal donors (ID 4328, 4379) and AML patients (ID 11SH, 09P6); settings: for degradation of GSPT1: 100 nM
Protocol: Thus, Compound D-induced GSPT1 degradation is also CRBN-dependent.
as §1, §2

[4] = test system: KG-1a cells; test: Anti-proliferation 72-hour CTG assay, KG-1a; type: cell-based; settings: Homo sapiens, read-out: IC50 of the anti-proliferative effect
Protocol: A plethora of AML cell lines were treated with serial dilutions of Compound D. IC50 value of the anti-proliferation effect of Compound D (as determined in 72-hour CTG assays) in each cell line is summarized in Table 1.

[5] = test system: HL-60 cells; test: Apoptosis (caspase 3/7 activation), HL-60; type: cell-based, human; settings: for EC50: Homo sapiens, read-out: Compound D-induced Apoptosis EC50

Compound: O=C1CCC(N2Cc3cc(CNC(=O)C(F)(F)c4ccc(Cl)cc4)ccc3C2=O)C(=O)N1 (stereo not drawn) [Compound D, 2-(4-chlorophenyl)-N-((2-(2,6-dioxopiperidin-3-yl)-1-oxoisoindolin-5-yl)methyl)-2,2-difluoroacetamide]
- time of GSPT1 degradation ([1]; KG1, 200 nM): ≤ 2 h
- degradation of GSPT1 ([1]; KG1, 200 nM, 8 or 12 hours): induced degradation
- reduction of GSPT1 protein levels ([1]; KG-1, 100 nM Compound D, 4 hours): greater than 800
- reduction of GSPT1 protein levels ([1]; KG-1, 100 nM or greater, 8-hour time point): > 90%
- reduction of GSPT1 protein levels ([2]; HL-60, 100 nM Compound D, 4 hours): greater than 800
- reduction of GSPT1 ([2]; HL-60, >30 nM Compound D, 8 hours): complete reduction
- degradation of GSPT1 ([3]; CRBN -/- OCI-AML2 cells): could not induce degradation
- reduction of GSPT1 protein levels ([3]; OC-AML2, 100 nM Compound D, 8 hours): greater than 800
- Percent Reduction at 100 nM Compound D GSPTI (8 hr) ([3]; OCI-AML2, 100 nM, 8 hr): 89%
- degradation of GSPT1 ([3]; parental OCI-AML2 cells): induced degradation
- IC50 [4]: 21 nM
- average percent increase in apoptosis ([5]; HL-60, 41 nM, 24 hour time-point): 9%
- Average Percent Increase in Apoptosis at 123 nM Compound D, Apoptosis (12 hr) ([5]; HL-60, 123 nM, 12 hr): 1%
- Average Percent Increase in Apoptosis at 123 nM Compound D, Apoptosis (24 hr) ([5]; HL-60, 123 nM, 24 hr): 19%
- Average Percent Increase in Apoptosis at 123 nM Compound D, Apoptosis (48 hr) ([5]; HL-60, 123 nM, 48 hr): 62%
- EC50 ([5]; HL-60, 24 hr): 73 nM
- EC50 ([5]; HL-60, 48 hr): 15 nM
- EC50 ([5]; HL-60, 72 hr): 8 nM
